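Step 1: Grow cells in 96-well plates. Step 2: Expose to compound for 48 hours at 5 concentrations. Step 3: Interpolate endpoints linearly; if unreached, use highest concentration. Here, GI50 denotes the concentration required for 50% inhibition of growth.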 Active and inactive are the calls of the source. Rule as the data show it: active = GI50 up to about 1.1 µM and inactive = higher.
Assays:
Experiment in all cases: growth of human tumour cells (NCI), 48 h
DU-145 = test system: DU-145
HT-29 = test system: HT-29
IGROV-1 = test system: IGROV-1
KM12 = test system: KM12
MDA-MB-231 = test system: MDA-MB-231
Malme-3M = test system: Malme-3M
NCI-H460 = test system: NCI-H460
OVCAR-8 = test system: OVCAR-8
RXF 393 = test system: RXF 393
SK-MEL-5 = test system: SK-MEL-5
SK-OV-3 = test system: SK-OV-3
SN12C = test system: SN12C
T47D = test system: T47D
UACC-257 = test system: UACC-257
SF-295 = test system: SF-295
U-251 = test system: U-251
HOP-92 = test system: HOP-92
NCI-H522 = test system: NCI-H522
SF-268 = test system: SF-268
SF-539 = test system: SF-539

Measured: GI50

CO[C@H]1/C=C/O[C@@]2(C)Oc3c(C)c(O)c4c(O)c(c(/C=N/N5CCN(C)CC5)c(O)c4c3C2=O)NC(=O)/C(C)=C\C=C\[C@H](C)[C@H](O)[C@@H](C)[C@@H](O)[C@@H](C)[C@H](OC(C)=O)[C@@H]1C [RIFAMPIN]
inactive: DU-145 > 100 µM | HT-29 60 µM | IGROV-1 73.6 µM | KM12 > 100 µM | MDA-MB-231 24.5 µM | Malme-3M 37.5 µM | NCI-H460 45.8 µM | OVCAR-8 > 100 µM | RXF 393 > 100 µM | SK-MEL-5 61.4 µM | SK-OV-3 > 100 µM | SN12C > 100 µM | T47D > 100 µM | UACC-257 80.5 µM

CC1(C)C(CC(=O)O)CCCC1CC(=O)O (stereo not given)
inactive: DU-145 > 100 µM | HT-29 > 100 µM | IGROV-1 > 100 µM | KM12 > 100 µM | MDA-MB-231 > 100 µM | OVCAR-8 > 100 µM | RXF 393 > 100 µM | SF-295 > 100 µM | SK-MEL-5 > 100 µM | SK-OV-3 > 100 µM | SN12C > 100 µM | T47D > 100 µM | U-251 > 100 µM | UACC-257 > 100 µM

COc1ccc(/C=C2\OC(=O)C(Cl)=C2c2ccc(OC)c(Cl)c2)cc1
inactive: DU-145 36.3 µM | HOP-92 17.9 µM | HT-29 43.2 µM | IGROV-1 32 µM | KM12 28.7 µM | Malme-3M 25.3 µM | NCI-H460 22.6 µM | NCI-H522 25.3 µM | OVCAR-8 21.1 µM | RXF 393 12 µM | SF-268 17.3 µM | SF-295 25.5 µM | SF-539 15.2 µM | SK-MEL-5 17.3 µM | SK-OV-3 33.9 µM | T47D 32.1 µM | U-251 29.4 µM | UACC-257 34.7 µM

CCN1CCN(c2nc3ccccc3nc2C(=O)c2ccc(OC)cc2)CC1
inactive: DU-145 > 100 µM | HOP-92 18.3 µM | HT-29 23.9 µM | IGROV-1 75.9 µM | KM12 24.8 µM | Malme-3M 16.5 µM | NCI-H460 21.5 µM | NCI-H522 53.6 µM | OVCAR-8 60.7 µM | RXF 393 12.4 µM | SF-268 29.4 µM | SF-295 32.7 µM | SF-539 26.4 µM | SK-MEL-5 37.2 µM | SK-OV-3 > 100 µM | T47D > 100 µM | U-251 39.4 µM | UACC-257 16.5 µM

Nc1ccc(CCN2CCN(CCCc3ccccc3)CC2)cc1
inactive: DU-145 70.3 µM | HT-29 16.2 µM | IGROV-1 98.6 µM | KM12 82.8 µM | MDA-MB-231 60.8 µM | Malme-3M 38.5 µM | NCI-H460 63.4 µM | NCI-H522 39.2 µM | OVCAR-8 47.1 µM | SF-268 > 100 µM | SF-295 > 100 µM | SF-539 80.5 µM | SK-MEL-5 29.6 µM | SK-OV-3 > 100 µM | SN12C > 100 µM | T47D 14.7 µM | U-251 > 100 µM | UACC-257 62.4 µM

COC(=O)c1cc2ccc(N)nc2[nH]c1=O
inactive: HOP-92 > 100 µM | IGROV-1 > 100 µM | KM12 > 100 µM | MDA-MB-231 > 100 µM | Malme-3M > 100 µM | NCI-H460 > 100 µM | NCI-H522 > 100 µM | OVCAR-8 > 100 µM | RXF 393 > 100 µM | SF-268 > 100 µM | SF-295 > 100 µM | SF-539 > 100 µM | SK-MEL-5 > 100 µM | SK-OV-3 > 100 µM | SN12C > 100 µM | T47D > 100 µM | U-251 > 100 µM | UACC-257 > 100 µM
